Data taken from patent US4670469A, “Hydroxamic acid and pharmaceutical preparations containing the same” (VEB Arzneimittelwerk Dresden, priority 1983, dated 1987).
pIC50: −log10 of the molar value. Where two headings read alike, the source gives them in different places.

Experiments:
[1] = molecular target: T1, lipoxygenase from rabbit reticulocytes (Oryctolagus cuniculus, UniProt P12530); assay: Inhibition of the activity of lipoxygenase from rabbit reticulocytes (oxygen consumption, Clark electrode); type: biochemical
T1 construct: The lipoxygenase from rabbit reticulocytes is obtained in electrophoretically and immunologically pure form; from tissue; host or cells: rabbit reticulocytes
T1 sequence (P12530 1-663): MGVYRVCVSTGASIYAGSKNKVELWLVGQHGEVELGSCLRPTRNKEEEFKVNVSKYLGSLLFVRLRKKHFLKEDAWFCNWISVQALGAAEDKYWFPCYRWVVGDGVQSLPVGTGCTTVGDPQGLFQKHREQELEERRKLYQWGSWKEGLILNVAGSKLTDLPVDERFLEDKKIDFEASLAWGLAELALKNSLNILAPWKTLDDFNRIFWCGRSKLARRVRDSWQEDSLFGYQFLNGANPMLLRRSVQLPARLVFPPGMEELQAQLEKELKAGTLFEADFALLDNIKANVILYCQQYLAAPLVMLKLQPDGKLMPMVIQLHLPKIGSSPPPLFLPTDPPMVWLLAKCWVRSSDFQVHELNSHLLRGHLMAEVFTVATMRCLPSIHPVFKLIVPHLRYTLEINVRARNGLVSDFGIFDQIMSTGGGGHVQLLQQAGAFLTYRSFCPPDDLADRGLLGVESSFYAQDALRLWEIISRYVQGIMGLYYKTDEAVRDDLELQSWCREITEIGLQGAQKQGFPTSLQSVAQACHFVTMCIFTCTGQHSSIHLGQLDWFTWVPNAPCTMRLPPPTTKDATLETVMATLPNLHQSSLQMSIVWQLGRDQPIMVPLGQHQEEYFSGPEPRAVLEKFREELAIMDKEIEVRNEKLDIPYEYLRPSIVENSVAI
Description: The lipoxygenase from rabbit reticulocytes was obtained in electrophoretically and immunologically pure form according to a technique known from the literature (S. M. Rapoport et al. Methods in Enzymology 71, 430 (1981)). The determination of lipoxygenase activity follows at 25° C. through the polarographic measurement of the oxygen consumption by means of Clark Electrode in a standardized system.
Through variation of the substance concentrations, the titration curves of the inhibition and therefrom the inhibition concentrations (I-value) of the compounds can be determined.
The testing of compounds for antiasthmatic, antiallergenic, inflammation-inhibiting and antithrombotic activity on the basis on the inhibition of the lipoxygenase reaction of the arachidonic acid cascade follows in a molecular/pharmacological test system. […] The lipoxygenase from rabbit reticulocytes is obtained in electrophoretically and immunologically pure form according to the techniques described in the literature (supra). The determination of the lipoxygenase activity follows at 25° C. through the polorographic measurement of oxygen consumption by means of a Clark-electrode in the following system: 0.1M potassiumphosphate, pH 7.4, with 0.2 percent sodium cholate and 0.53 mM linoleic acid. The enzyme concentration in the measurement preparation came to 25 nM. The compounds to be tested are dissolved in methylglycol (freshly distilled in a vacuum) and pre-incubated for 15 minutes at the measuring temperature in the absence of sodium cholate and linoleic acid. […] The enzyme reaction is started by the addition of sodium cholate and linoleic acid.

lipoxygenase from peas = assay: Inhibition of lipoxygenase from peas; type: biochemical; conditions: read-out: I50
Description: The inhibition of thrombocyte aggregation is likewise ascribed to the inhibition of lipoxygenase in the cells. It has thus been shown that the arachidonate-lipoxygenase activity of a microsome-free lysate of human thrombocyte concentrates is inhibited to the extent of 100% by means of 0.25 mM salicylhydroxamic acid. Moreover, it has been shown that also a series of further lipoxygenases are inhibited by means of the here described hydroxamic acids. The lipoxygenase from soybeans reacts the most insensitive, i.e. it is inhibited by means of 1 mM salicylhydroxamic acid at pH 7.4 to an extent of 60% and by means of 0.4 mM 2-hydroxy-1-napthylhydroxamic acid to an extent of 54%. In contrast, for the lipoxygenase from peas which come closer in their characteristics to human lipoxygenase, the following I50 -values are provided: salicyl hydroxamic acid, 5 μM, 2-hydroxy-1-napthylhydroxamic acid, 2 μM, 2(2'-napthoxy)-acethydroxamic acid, 2 μM. Moreover it has been shown that the formation lipoxygenase products of arachidonic acid in in vitro cultivated aorta endothelial cells of calves is hindered through 0.1 mM 2-hydroxy-1-napthylhydroxamic acids.

guinea pig lung strips = assay: Arachidonic acid-induced spasm of isolated guinea pig lung strips; conditions: active substance 100 μM
Description: They display in animal experimental tests on isolated lung strips from guinea pigs a pronounced antiasthmatic effect. The testing of the mentioned pharmacological characteristics follows according to the principles of measuring techniques known from the literature, which come into use in modified form (G. M. Drazen et al. G. Clin. Invest. 63 1 (1979); M. W. Schneider and G. M. Drazen Amer. Rev. Resp. Dis. 121 835 (1980); S. S. Yen and W. Kreutner, Agents Actions 10 274 (1980); S. S. Yen Prostaglandins 22, 183 (1981)).
The compounds of Formula I effect a significant restraint on arachidonic acid-induced bronchial constriction (1.5.10^-5 M arachidonic acid) in the guinea pig lung preparations (see, Example 6). Also with the addition of a cyclooxygenase inhibitor to the measuring system this effect was unaltered, and to some extent stronger, detectably. These experimental results permit without a doubt the conclusion that the compounds of Formula I involve inhibitors of the lipoxygerase pathway of arachidonic utilization, and the above described pharmacological effect is grounded upon this mechanism of activity.
The testing of the compounds for antiasthmatic activity follows on isolated lung strips and isolated tracheal rings from guinea pigs according to measuring methods known from the literature (supra) in modified form. The measurements follow in thermostatically controlled organ bath, isotonically using a contraction measuring arrangement with lift receiver, measuring coil, measuring amplifier (inductive measurement with the aid of a high frequency resonant circuit). The gasification follows with air. The suspension solution has the following composition: 39.46 g NaCl, 2.2 g KCl, 6.07 g Tris, 1.0 g CaCl2, 9.9 g glucose, 1.0 ml saturated MgCl2 -solution, 43 ml 1N HCl; pH 7.4.
(a) Activity on spasm of the guinea pig lung strips, induced by exogenous arachidonic acid.
The spasm is triggered by rising concentrations of arachidonic acid (concentrated solution in ethanol, stored in N2 -atmosphere) and is cumulatively measured. […] The active substance caused a highly significant displacement to the right of the Dose-Activity curves for arachidonic acid, visible by a clear elevation of the ED50 - and ED84 -values. The effect can be described through the following activity index: [formula] In an analogous manner, the index i84 is determined from the measured data.

pIC50 ([1]; 25° C., pH 7.4, 0.53 mM linoleic acid, 15 min pre-incubation, read-out: I50)	IC84 ([1]; 25° C., pH 7.4, 0.53 mM linoleic acid, 15 min pre-incubation, read-out: I84) [µM]	SMILES	pIC50 (lipoxygenase from peas)	activity index i50 (displacement of arachidonic acid ED50) (guinea pig lung strips)	activity index i84 (displacement of arachidonic acid ED84) (guinea pig lung strips)	pIC50 [1]
5.60	9	O=C(COc1ccc2ccccc2c1)NO [2(2'-naphthoxy)-acethydroxamic acid]	5.70	5.8	7.1	–
–	–	O=C(NO)c1ccccc1O [salicylhydroxamic acid]	5.30	1.9	8.5	4.70
